Experimental data published in paper PMC5799093, “Proceedings of Réanimation 2018, the French Intensive Care Society International Congress” (Annals of Intensive Care, 2018).
Like-named read-outs stand apart in the source and are kept apart here.

Columns and labels:
[1] = Acute olanzapine poisoning in ICU (P-182); type: in vivo, human
Method: Patients and methods: Retrospective analysis of all cases of olanzapine intoxication admitted in 12-bed teaching ICU between January 2013 and Decembre 2017. Inclusion criteria were patient age ≥ 14 year, acute olanzapine intoxication, the intoxication severity was assessed by the Poisoning Severity Score (PSS) of the European Association of Poison Centres and Clinical Toxicologists. The evaluation of electrocardiograms was performed in the first day of hospitalization. The durations of QRS and QTc was measured and arrhythmias and conduction disorders was identified.

[2] = Delayed neuropsychiatric sequelae after carbon monoxide poisoning in outpatients
anti-Xa activity = test: Pharmacokinetics of unfractionated heparin (anti-Xa activity) in children under ECMO (P-171); type: in vivo, human (children)
Method: Patients and methods: This is a single center retrospective study from March 2015 to September 2016. Were included children (< 18 years old age) who were under ECMO for refractory hemodynamic failure related to (i) myocarditis or (ii) septic shock. Anti-Xa activity time-courses were analyzed using a non linear mixed effects approach with Monolix version 2016R.

[3] = Cyproheptadine poisoning, retrospective series (P-180); type: in vivo, human
Method: Patients and methods: Retrospective study was performed between January 2008 and APRIL 2017. Epidemiological data clinical data and outcome were reviewed.

[4] = tested on: cardiogenic shock patients; test: OPTIMA CC double-blind randomized trial, epinephrine vs norepinephrine in cardiogenic shock after myocardial infarction; type: in vivo
Text: Patients and methods: Multicenter, double-blind, randomized trial in 8 french ICU. Cardiogenic shock patients due to myocardial infarction treated by PCI were randomized to receive epinephrine or norepinephrine to maintain MAP at 70 mmHg. Dobutamine was introduced at the physician discretion according to a combination of parameters—echocardiographic parameters, cardiac index, lactate clearance, SVO2 and Swan-Ganz derived parameters.

[5] = Beta-lactam plasma concentrations in children with severe sepsis or septic shock (HPLC); settings: current standard dosing
[6] = Population pharmacokinetics of cefotaxime and desacetylcefotaxime in critically ill children (P-168); type: in vivo, human (children)
Method: Patients and methods: All children aged less than 18 years, weighing more than 2.5 kg, and receiving intermittent CTX infusions were included. CTX and D-CTX were quantified by high performance liquid chromatography. Pharmacokinetics were described using the non-linear mixed effect modelling software MONOLIX. Monte Carlo simulations were used to optimize dosing regimen, in order to maintain serum concentration above the target concentration (defined at 2 mg L^−1) 100% of the time during the dosing interval.

[7] = tested on: carbapenemase-producing Enterobacteriaceae; test: Antibiotic susceptibility of Enterobacteriaceae with decreased susceptibility to carbapenems; type: cell-based; settings: for resistant rate: CA-SFM 2015
Candida isolates = test: Antifungal susceptibility of Candida isolates, Fungitest broth dilution; type: cell-based, Candida spp.
Method: Patients and methods: Our study is a retrospective review of 17 severely burned patients admitted to the burn unit of the Ben Arous Traumatology and Burns Center with one or more positive culture sites for Candida, during the 16-month period from May 2016 through August 2017. A total of 42 isolates were thus obtained. […] Since echinocandin and anidulafungine were recently introduced in Tunisia, the susceptibility to these antifungal classes was tested for only one patient from our cohort.

[8] = Acute amitriptylin and clomipramine poisonings in the ICU, clinical features and pharmacokinetics; settings: median; AMI [0.4 + 1.4], dose 1.5 g; CLO [0.5 + 1.4], dose 3.0 g
[9] = tested on: Extended spectrum betalactamase producing Enterobacteriaceae; test: Antibiotic resistance of ESBL producing Enterobacteriaceae (P-147); type: cell-based; settings: isolates 2015 and 2016
[10] = tested on: patients with severe alcohol withdrawal syndrome; test: Continuous-infusion midazolam for severe alcohol withdrawal syndrome, complications; type: in vivo
Text: Patients and methods: We retrospectively reviewed the medical records of all patients hospitalized for alcohol withdrawal syndrome between 2006 and 2016. Only those who received continous-infusion of BZD, associated with close clinical monitoring and the evaluation of RASS and Cushman scores, without systematic recourse to mechanical ventilation, were included.

[11] = Residual serum concentrations of piperacillin and amoxicillin and neurological disorders (HPLC MS); type: in vivo, critically ill patients
Method: Patients and methods: This study was carried out retrospectively during the period 01.01.2015 to 08.02.2017, in patients hospitalized in the medical ICU-CHU Rouen with PTM.

Acinetobacter baumannii = type: cell-based
Method: Patients and methods: From January 2012 to December 2016, a total of 2,182 non repetitive strains were isolated from blood cultures. Incubation of blood culture vials and the detection of bacterial growth were performed by the BACTEC system. All Isolated organisms were identified on the basis of standard microbiological techniques. Antibiotic susceptibility testing was carried out by the agar disk diffusion method, and susceptibility results were interpreted using clinical breakpoints according to CA-SFM 2013 and 2015 guidelines. Data were analyzed using the SIR-system. Minimum inhibitory concentrations of colistin, imipenem and vancomycin were determined using the Etest® method (bioMérieux).

Pseudomonas aeruginosa = test: Disk diffusion susceptibility of P. aeruginosa isolated from burned patients (P-48); type: cell-based; settings: 485 strains from burned patients 2012-2015, disk diffusion, FSM breakpoints
[12] = median (range), 49 children, one compartment model

With `Cc1cc2c(s1)Nc1ccccc1N=C2N1CCN(C)CC1` [olanzapine, Olanzapine] the “mean duration of prolonged QTc” value ([1]; 5 cases) was 460 ± 28 ms, the “Poisoning Severity Score moderate, monointoxication” value ([1]; 8 patients, 3 cases) was 37.5% and the “Poisoning Severity Score severe, monointoxication” value ([1]; 8 patients, 4 cases) was 50%. For the same compound, the “Poisoning Severity Score fatal” value ([1]; 24 patients) was 1 case, the “Poisoning Severity Score moderate” value ([1]; 24 patients, 9 cases) was 37.5% and the “Poisoning Severity Score severe” value ([1]; 24 patients, 14 cases) was 58%. The agitation ([1]; n = 8 of 24) was 33%, the miosis ([1]; n = 15 of 24) was 62% and the tachycardia ([1]; n = 15 of 24) was 62%. For the same compound, the “Coma Glosgow Scale < 12” value ([1]; of 24) was 14 cases, the mechanical ventilation required ([1]; of 24) was 58% and the “prolonged QTc” value ([1]; of 24) was 5 cases. The “QRS enlargement on the ECG” value (human, in vivo) was 10%, the QT widening (human, in vivo) was 23% and the abolished tendon reflexes (human, in vivo) was 31%. For the same compound, the increased tendon reflexes (human, in vivo) was 28%, the mydriasis (human, in vivo) was 10% and the myorelaxation (human, in vivo) was 68%. For the same compound, the myosis (human, in vivo) was 39%, the seizures (human, in vivo) was “No seizure was observed” and the “plasma concentration on admission” value (median [0.185 + 0.820], ingested dose 200 mg [110 + 333], n = 71) was 310 ng/mL. For the same compound, the Glasgow coma score (median [percentiles 25 + 75], multidrug ingestion) was 4 [3 + 8], the elimination in overdose (non-compartmental analysis) was “prolonged olanzapine elimination at elevated concentrations” and the “died in the ICU” value (patients with pre-hospital cardiac arrest) was 4%.
With `[C-]#[O+]` [CO, Carbon monoxide] the “mean serum HbCO level on admission” value ([2]; 83 patients) was 15 ± 8%, the persistent headaches ([2]; among identified disorders) was 39% and the anxiety-depressive disorders ([2]; in vivo) was 39%. The cognitive disorders ([2]; in vivo) was 22%, the irritability ([2]; in vivo) was 22% and the “mean onset time of symptoms” value ([2]; in vivo) was 5 ± 3 months. For the same compound, the “prevalence of patients with delayed neuropsychiatric sequelae” value ([2]; telephone contact at 16 ± 9 months) was 26%.
With unfractionated heparin the “typical clearance (CLTYP)” value (anti-Xa activity; 12 children under ECMO, one-compartment, scaled to 70 kg) was 2.42 L/h, the “typical volume of distribution (VTYP)” value (anti-Xa activity; 12 children under ECMO, scaled to 70 kg) was 5.1 L and the “samples with anti-Xa activity > 0.6 IU mL” value (anti-Xa activity; 37 of 214 samples) was 17%. The “samples with anti-Xa activity < 0.4 IU mL” value (anti-Xa activity; 81 of 214 samples) was 38%, the “samples with anti-Xa activity in the target (0.4 to 0.6 IU mL)” value (anti-Xa activity; 96 of 214 samples, 12 children) was 45% and the bleeding (anti-Xa activity; of 12) was 2 children. For the same compound, the thrombosis (anti-Xa activity; of 12) was 4 children.
With `CN1CCC(=C2c3ccccc3C=Cc3ccccc32)CC1` [cyproheptadine] the delirium ([3]; 56 patients) was 20%, the outcome ([3]; 56 patients) was “favorable in all cases” and the “patients with peripheral anti-cholinergic symptoms” value ([3]; 56 patients) was “Forty two”. For the same compound, the “median delay of symptoms onset” value ([3]; 56 patients, mean ingested dose 94 mg, range [1–14]) was 3 h, the “correlation between coma and assumed ingested dose” value ([3]; in vivo) was “no correlation” and the “mean duration of mechanical ventilation” value ([3]; six ventilated patients, ± 4) was 17 h.
In the case of `CNC[C@H](O)c1ccc(O)c(O)c1` [epinephrine], the “arterial pH and lactate” value ([4]; H2 to H24) is reported as “lactic acidosis from H2 to H24”, the “cardiac index and cardiac power index” value ([4]; epinephrine vs norepinephrine group) is reported as “increased significantly more” and the ECMO use ([4]; in vivo) is reported as 11%. For the same compound, the “cardiac double product (surrogate of myocardial oxygen consumption)” value ([4]; in vivo) was “increased”, the heart rate evolution ([4]; in vivo) was “increased significantly” and the incidence of arrhythmia ([4]; in vivo) was 41%. The mortality ([4]; in vivo) was 52% and the “incidence of refractory shock” value ([4]; titrated to MAP 70 mmHg, epinephrine n = 27, norepinephrine n = 30) was 37%.
For `C[C@@H](O)[C@H]1C(=O)N2C(C(=O)O)=C(S[C@@H]3CN[C@H](C(=O)N(C)C)C3)[C@H](C)[C@H]12` [meropenem], the “patients with insufficient plasma concentration” value [5] was 50%.
For `CO/N=C(\C(=O)N[C@@H]1C(=O)N2C(C(=O)O)=C(CO)CS[C@H]12)c1csc(N)n1` [D-CTX, desacetylcefotaxime], the D-CTX clearance [6, 12] was 3.2 (0.6–16.3) L h^−1.
For `C[C@@H]1O[C@@H]1P(=O)(O)O` [fosfomycin], the susceptibility ([7]; colistin excepting with Proteus) was 65%.
`Clc1ccc(COC(Cn2ccnc2)c2ccc(Cl)cc2Cl)c(Cl)c1` (stereo not shown) [miconazole] gave an intermediate isolates (Candida isolates) of 33.3%.
With `CN(C)CCCN1c2ccccc2CCc2ccc(Cl)cc21` [CLO, clomipramine] the plasma concentration [8] was 700 ng/mL.
With `Cc1nnc(SCC2=C(C(=O)O)N3C(=O)[C@@H](NC(=O)Cn4cnnn4)[C@H]3SC2)s1` [cefazoline, cefazolin] the “patients with insufficient plasma concentration” value [5] was 25%.
In the case of `C[C@@H]1[C@H](O)[C@@H](C)/C=C/C=C/C=C/C=C/C=C/C=C/C=C/[C@H](O[C@@H]2O[C@H](C)[C@@H](O)[C@H](N)[C@@H]2O)C[C@@H]2O[C@](O)(C[C@@H](O)C[C@@H](O)[C@H](O)CC[C@@H](O)C[C@@H](O)CC(=O)O[C@H]1C)C[C@H](O)[C@H]2C(=O)O` [amphotericin B], the resistant strains (Candida isolates) is reported as “Only one strain was resistant”.
With `CO/N=C(\C(=O)N[C@@H]1C(=O)N2C(C(=O)O)=C(COC(C)=O)CS[C@H]12)c1csc(N)n1` [CTX, cefotaxime] the “target attainment of calculated residual concentrations” value ([6]; intermittent infusions, target 2 mg L^−1) was “no patient succeeds to attain the target”, the volume of distribution [6, 12] was 3.3 (0.85–20) L and the CTX clearance ([6]; median (range), 49 children, one compartment model, MONOLIX, HPLC) was 0.97 (0.3–7.1) L h^−1.
`CCC(C)n1ncn(-c2ccc(N3CCN(c4ccc(OCC5COC(Cn6cncn6)(c6ccc(Cl)cc6Cl)O5)cc4)CC3)cc2)c1=O` (stereo not shown) [itraconazole] gave an intermediate isolates (Candida isolates) of 81.5%.
Compound `CNC(C)C1CCC(N)C(OC2C(N)CC(N)C(OC3OCC(C)(O)C(NC)C3O)C2O)O1` (stereo not shown) [Gentamicin] has a rate of resistance [9] of 50%.
`OC(Cn1cncn1)(Cn1cncn1)c1ccc(F)cc1F` [fluconazole] gave an intermediate isolates (Candida isolates) of 11.1%, a resistant isolates (Candida isolates) of 11.1% and a susceptible isolates (Candida isolates) of 77.8%.
In the case of `Cc1ncc2n1-c1ccc(Cl)cc1C(c1ccccc1F)=NC2` [midazolam], the “OR of intubation and or pneumonia for maximum perfusion velocity > 8 mg h” value ([10]; IC 95% (2.11–168.15)) is reported as 18.83, the “patients developing pneumonia and or requiring intubation” value ([10]; continuous infusion, median maximum 8 mg h, n = 104) is reported as 12% and the “cardiac arrest and death” value ([10]; n = 104) is reported as “No cardiac arrest and death was observed”. For the same compound, the patients with seizures ([10]; n = 104) was 8%.
Work on `CO/N=C(\C(=O)N[C@@H]1C(=O)N2C(C(=O)O)=C(COC(C)=O)CS[C@H]12)c1csc(N)n1` [cefotaxime] yielded a resistant rate [7] of 97%.
`CC(=O)N1CCN(c2ccc(OCC3COC(Cn4ccnc4)(c4ccc(Cl)cc4Cl)O3)cc2)CC1` (stereo not shown) [ketoconazole] gave an intermediate isolates (Candida isolates) of 40.7%.
For `CC1(C)S[C@@H]2[C@H](NC(=O)[C@H](N)c3ccc(O)cc3)C(=O)N2[C@H]1C(=O)O` [amoxicillin], the “residual concentration associated with occurrence of neurological disorders” value ([11]; 80% specificity and sensitivity) was “greater than 40 mg L^−1”, the “residual serum concentration, patients with neurological disorders or wakefulness delays” value ([11]; HPLC MS) was 157 ± 72 mg L^−1 and the “residual serum concentration, patients without neurological disorders” value ([11]; HPLC MS) was 35.8 ± 13.0 mg L^−1. For the same compound, the “patients with insufficient plasma concentration” value [5] was 86%.
`C[C@H]1[C@H](NC(=O)/C(=N\OC(C)(C)C(=O)O)c2csc(N)n2)C(=O)N1S(=O)(=O)O` [aztreonam] showed a resistant rate [7] of 67%.
In the case of `CO[C@H]1/C=C/O[C@@]2(C)Oc3c(C)c(O)c4c(O)c(c(/C=N/N5CCN(C)CC5)c(O)c4c3C2=O)NC(=O)/C(C)=C\C=C\[C@H](C)[C@H](O)[C@@H](C)[C@@H](O)[C@@H](C)[C@H](OC(C)=O)[C@@H]1C` [rifampicin], the resistance rate (Acinetobacter baumannii; by 2016) is reported as 67% and the resistance rate (Acinetobacter baumannii; in 2014) is reported as 15%.
Work on `CC1(C)S[C@@H]2[C@H](NC(=O)[C@H](C(=O)O)c3ccsc3)C(=O)N2[C@H]1C(=O)O` [ticarcillin] yielded a strains resistant (Pseudomonas aeruginosa) of 69%.
For `CCn1cc(C(=O)O)c(=O)c2cc(F)c(N3CCNCC3)cc21` [Norfloxacin], the rate of resistance [9] was 89.13%.
